Series [1] deals with A-375. As to the kind of experiment: Inhibition of cell proliferation in human A-375 cells assessed as alive cells at 10 uM measured for 96 hrs relative to control. The format is functional.
The test system of series [2] is A-375. The series can be described thus: Inhibition of cell proliferation in human A-375 cells assessed as alive cells at 5 uM measured for 96 hrs relative to control. The format is functional.
In series [3] the test system is A-375. As to the kind of experiment: Inhibition of cell proliferation in human A-375 cells assessed as alive cells at 25 uM measured for 96 hrs relative to control. The format is functional.
The subject of series [4] is A-375. The series can be described thus: Inhibition of cell proliferation in human A-375 cells assessed as alive cells at 2.5 uM measured for 96 hrs relative to control. The format is functional.
The subject of a further series is MOLT-4. The series can be described thus: Growth inhibition of human MOLT-4 cells at 10 uM relative to control. The following applies: read-out: GI. Type of series: functional.
Series [5] has as its system Vesicular stomatitis virus. The series can be described thus: Antiviral activity against Vesicular stomatitis virus infected in Vero cells assessed as inhibition of cytopathic effect measured after 96 hrs by fluorescence based CPE reduction method. The format is functional, organism-based. (In general: Cytopathic effects are the visible damage that an infection or toxin causes in cultured cells.)

The subject of another series is Sindbis virus. The series can be described thus: Antiviral activity against Sindbis virus infected in Vero cells assessed as reduction in viral growth incubated for 96 hrs by plaque assay. The format is functional, organism-based.
A further series has as its system Rubella virus. As to the kind of experiment: Antiviral activity against Rubella virus infected in Vero cells assessed as reduction in viral growth incubated for 96 hrs by plaque assay. Type of series: functional, organism-based.
In series [6] the test system is Influenza A virus. As to the kind of experiment: Antiviral activity against Influenza A virus A/H2N2 infected in dog MDCK cells reduction in virus induced cytopathic effect measured after 3 days by CPE assay. The format is functional, organism-based. The following applies: 72 h.
Series [7] deals with Influenza A virus. The series can be described thus: Antiviral activity against Influenza A virus A/H1N1 infected in MDCK cells reduction in virus induced cytopathic effect measured after 3 days by CPE assay. The format is functional, organism-based. The following applies: 72 h.
In series [8] the test system is Influenza A virus. The series can be described thus: Antiviral activity against Influenza A virus A/H1N1 infected in dog MDCK cells reduction in viral replication incubated for 3 days by MTS assay. The format is functional, organism-based. The following applies: 72 h.
In series [9] the test system is Influenza A virus. As to the kind of experiment: Antiviral activity against Influenza A virus A/H2N2 infected in dog MDCK cells reduction in viral replication incubated for 3 days by MTS assay. The format is functional, organism-based. The following applies: 72 h. (In general: Tetrazolium dyes change colour on reduction, which living cells bring about.)
The test system of series [10] is Influenza B virus. The series can be described thus: Antiviral activity against Influenza B virus infected in dog MDCK cells assessed as reduction in viral replication incubated for 3 days by MTS assay. Type of series: functional, organism-based. The following applies: 72 h.
Series [11] is described as follows: Cytotoxicity against dog MDCK cells assessed as reduction in cell viability measured for 3 days by MTT assay. Type of series: toxicity, cell-based, Canis lupus familiaris. The following applies: time 3 day.
Series [12] has as its system Influenza B virus. The series can be described thus: Antiviral activity against Influenza B virus infected in dog MDCK cells assessed as reduction in cytopathic effect measured after 3 days by CPE assay. Type of series: functional, organism-based. The following applies: 72 h.
The test system of another series is Huh-7. The series can be described thus: Cytotoxicity against human Huh-7 cells assessed as reduction in cell growth. The format is functional.
A short description of series [13]: Inhibition of Hepatitis C virus NS5B RNA dependent RNA polymerase. Set-up: species or system Hepacivirus hominis.
Another series has as its system Hepatitis C virus. The series can be described thus: Antiviral activity against Hepatitis C virus infected in human Huh7.5 cells assessed as reduction in viral replication. The format is functional, organism-based, Hepacivirus hominis.
The next series relates to Escherichia coli. The series can be described thus: Antibacterial activity against Escherichia coli ATCC 25922 assessed as reduction in bacterial growth incubated for 24 to 48 hrs by serial dilution method. The format is functional. The following applies: time 24-48 hrs.
The next series concerns Staphylococcus aureus. The series can be described thus: Antibacterial activity against Staphylococcus aureus ATCC 6538 assessed as reduction in bacterial growth incubated for 24 to 48 hrs by serial dilution method. Type of series: functional. The following applies: time 24-48 hrs.
The next series concerns Micrococcus luteus. As to the kind of experiment: Antibacterial activity against Micrococcus luteus ATCC 2188 assessed as reduction in bacterial growth incubated for 24 to 48 hrs by serial dilution method. The following applies: time 24-48 hrs. The format is functional.
The next series deals with Pseudomonas aeruginosa. The series can be described thus: Antibacterial activity against Pseudomonas aeruginosa ATCC 27853 assessed as reduction in bacterial growth incubated for 24 to 48 hrs by serial dilution method. The following applies: time 24-48 hrs. The format is functional.
A further series has as its system Bacillus subtilis. As to the kind of experiment: Antibacterial activity against Bacillus subtilis NRRL B-1481 assessed as reduction in bacterial growth incubated for 24 to 48 hrs by serial dilution method. The format is functional. The following applies: time 24-48 hrs.

In brackets after ≈: the same amount, converted by molar mass.

A word on the inhibition: it is the drop in the measured response relative to a control, in per cent. Consider `CCC(C)Sc1nc(C(CC)c2c(F)cccc2F)c(C)c(=O)[nH]1` (stereo not drawn), for which the inhibition at 10 µM with A-375 [1] turned out to be 12%. The inhibition at 5 µM in the series with A-375 [2] was 30%. Besides, the inhibition at 25 µM in the series with A-375 [3] is 5%. Besides, the inhibition at 2.5 µM in the series on A-375 [4] came out at 70%.

On to `CCc1ccc(-c2nc(SCC(=O)c3ccc(Br)cc3)[nH]c(=O)c2C#N)s1`, for which the inhibition of growth at 10 µM with MOLT-4 amounted to 42.4%.

As a reminder, the IC50 is the midpoint of a concentration-inhibition curve. With `CCN(CC)CCc1cc(=O)[nH]c(SC)n1`, the IC50 in series [5] stood at 29 µg/mL (≈ 120 µM); in the series on Sindbis virus it was 44.3 µg/mL (≈ 184 µM); in the series with Rubella virus, 3.9 µg/mL (≈ 16.2 µM).

The EC50 is the concentration giving half of the maximal effect. As usually defined, the CC50 is the concentration giving 50% cytotoxicity. Regarding `COc1ccc(NC(=O)CSc2nc(Cc3cccc4ccccc34)c(C)c(=O)[nH]2)cc1`, the 50% effective concentration (EC50) in the series with Influenza A virus [6] is 26 µM; in the series with Influenza A virus [7] it was 9 µM; in the series with Influenza A virus [8], 9 µM; with Influenza A virus [9] it was 9.7 µM; in the series with Influenza B virus [10], above 22 µM; in the series on Influenza B virus [12], above 45 µM. In [11], the half-maximal cytotoxic concentration (CC50) at 72 h was above 224 µM.

Regarding `CCc1c(-c2ccc(C(C)C)cc2)nc(Sc2ccccc2Br)[nH]c1=O`, the 50% cytotoxic concentration (CC50) in the series on Huh-7 was above 250 µM. Also, it took 3.8 µM to reach half-maximal inhibition in series [13] (IC50). The EC50 with Hepatitis C virus was 32 µM.

For orientation: MIC means the least concentration at which growth counts as inhibited. On to `COc1cc(-c2nc(SC)[nH]c(=O)c2C#N)ccc1OCc1ccccc1`, for which the MIC was determined as 12.5 µg/mL (≈ 32.9 µM) in the series on Escherichia coli; 12.5 µg/mL (≈ 32.9 µM) in the series with Staphylococcus aureus; 12.5 µM (≈ 4.74 µg/mL) in the series on Micrococcus luteus; 12.5 µg/mL (≈ 32.9 µM) in the series on Pseudomonas aeruginosa; 6.25 µg/mL (≈ 16.5 µM) with Bacillus subtilis.
